Assay: mn = molality of the nth substance listed, in mol/kg
Settings: 101 kPa, Liquid; for viscosity: Falling or rolling sphere viscometry; for speed of sound: Frequency=3 MHz, Single path-length method; for mass density: Vibrating tube method

C[n+]1ccn(CCCn2cc[n+](C)c2)c1.[Br-].[Br-] [1,3-bis[3-methylimidazolium-1-yl]propane dibromide] + O
Settings | mass density [kg/m3] | speed of sound [m/s] | viscosity [mPa·s]
293.15 K, m1 = 0.03423 | 1002.81 | 1486.3 | 1.019
293.15 K, m1 = 0.04998 | 1004.86 | 1488.1 | 1.025
293.15 K, m1 = 0.06131 | 1006.3 | 1489.3 | 1.029
293.15 K, m1 = 0.07119 | 1007.55 | 1490.3 | 1.033
293.15 K, m1 = 0.08049 | 1008.72 | 1491.3 | 1.037
293.15 K, m1 = 0.089 | 1009.76 | 1492.2 | 1.04
293.15 K, m1 = 0.09492 | 1010.48 | 1492.8 | 1.042
298.15 K, m1 = 0.03423 | 1001.61 | 1499.9 | 0.906
298.15 K, m1 = 0.04998 | 1003.65 | 1501.6 | 0.912
298.15 K, m1 = 0.06131 | 1005.1 | 1502.6 | 0.917
298.15 K, m1 = 0.07119 | 1006.34 | 1503.5 | 0.921
298.15 K, m1 = 0.08049 | 1007.49 | 1504.6 | 0.924
298.15 K, m1 = 0.089 | 1008.53 | 1505.4 | 0.927
298.15 K, m1 = 0.09492 | 1009.24 | 1505.8 | 0.929
303.15 K, m1 = 0.03423 | 1000.19 | 1512.3 | 0.814
303.15 K, m1 = 0.04998 | 1002.22 | 1513.9 | 0.82
303.15 K, m1 = 0.06131 | 1003.66 | 1514.9 | 0.824
303.15 K, m1 = 0.07119 | 1004.89 | 1515.8 | 0.828
303.15 K, m1 = 0.08049 | 1006.04 | 1516.6 | 0.831
303.15 K, m1 = 0.089 | 1007.06 | 1517.5 | 0.835
303.15 K, m1 = 0.09492 | 1007.78 | 1518 | 0.838
308.15 K, m1 = 0.03423 | 998.558 | 1521.8 | 0.737
308.15 K, m1 = 0.04998 | 1000.57 | 1523.2 | 0.743
308.15 K, m1 = 0.06131 | 1002.01 | 1524 | 0.747
308.15 K, m1 = 0.07119 | 1003.23 | 1524.8 | 0.751
308.15 K, m1 = 0.08049 | 1004.38 | 1525.7 | 0.755
308.15 K, m1 = 0.089 | 1005.39 | 1526.4 | 0.758
308.15 K, m1 = 0.09492 | 1006.11 | 1526.8 | 0.76
313.15 K, m1 = 0.03423 | 996.725 | 1531.6 | 0.675
313.15 K, m1 = 0.04998 | 998.73 | 1532.7 | 0.679
313.15 K, m1 = 0.06131 | 1000.15 | 1533.5 | 0.683
313.15 K, m1 = 0.07119 | 1001.38 | 1534.1 | 0.689
313.15 K, m1 = 0.08049 | 1002.51 | 1534.8 | 0.686
313.15 K, m1 = 0.089 | 1003.53 | 1535.5 | 0.689
313.15 K, m1 = 0.09492 | 1004.24 | 1535.8 | 0.691

C[n+]1ccn(CCCCCn2cc[n+](C)c2)c1.[Br-].[Br-] + O
Settings | mass density [kg/m3] | speed of sound [m/s] | viscosity [mPa·s]
293.15 K, m1 = 0.03341 | 1002.35 | 1488.3 | 1.021
293.15 K, m1 = 0.04614 | 1003.89 | 1490.3 | 1.027
293.15 K, m1 = 0.05646 | 1005.11 | 1491.6 | 1.032
293.15 K, m1 = 0.06717 | 1006.38 | 1493.3 | 1.037
293.15 K, m1 = 0.0777 | 1007.58 | 1494.8 | 1.042
293.15 K, m1 = 0.08857 | 1008.85 | 1496.4 | 1.047
293.15 K, m1 = 0.09671 | 1009.75 | 1497.3 | 1.05
298.15 K, m1 = 0.03341 | 1001.16 | 1501.9 | 0.908
298.15 K, m1 = 0.04614 | 1002.7 | 1503.7 | 0.914
298.15 K, m1 = 0.05646 | 1003.91 | 1505 | 0.918
298.15 K, m1 = 0.06717 | 1005.17 | 1506.5 | 0.924
298.15 K, m1 = 0.0777 | 1006.38 | 1507.8 | 0.928
298.15 K, m1 = 0.08857 | 1007.62 | 1509.2 | 0.933
298.15 K, m1 = 0.09671 | 1008.51 | 1510.2 | 0.936
303.15 K, m1 = 0.03341 | 999.742 | 1514.4 | 0.815
303.15 K, m1 = 0.04614 | 1001.27 | 1515.9 | 0.821
303.15 K, m1 = 0.05646 | 1002.47 | 1517.1 | 0.825
303.15 K, m1 = 0.06717 | 1003.73 | 1518.5 | 0.83
303.15 K, m1 = 0.0777 | 1004.93 | 1519.8 | 0.835
303.15 K, m1 = 0.08857 | 1006.16 | 1520.9 | 0.839
303.15 K, m1 = 0.09671 | 1007.05 | 1521.8 | 0.843
308.15 K, m1 = 0.03341 | 998.108 | 1523.7 | 0.737
308.15 K, m1 = 0.04614 | 999.627 | 1525.1 | 0.741
308.15 K, m1 = 0.05646 | 1000.83 | 1526.4 | 0.747
308.15 K, m1 = 0.06717 | 1002.07 | 1527.4 | 0.752
308.15 K, m1 = 0.0777 | 1003.27 | 1528.7 | 0.757
308.15 K, m1 = 0.08857 | 1004.5 | 1529.9 | 0.762
308.15 K, m1 = 0.09671 | 1005.38 | 1530.7 | 0.766
313.15 K, m1 = 0.03341 | 996.275 | 1533.2 | 0.67
313.15 K, m1 = 0.04614 | 997.783 | 1534.3 | 0.676
313.15 K, m1 = 0.05646 | 998.981 | 1535.4 | 0.681
313.15 K, m1 = 0.06717 | 1000.22 | 1536.5 | 0.685
313.15 K, m1 = 0.0777 | 1001.41 | 1537.5 | 0.689
313.15 K, m1 = 0.08857 | 1002.64 | 1538.6 | 0.694
313.15 K, m1 = 0.09671 | 1003.53 | 1539.4 | 0.697

C[n+]1ccn(CCCCn2cc[n+](C)c2)c1.[Br-].[Br-] + O
Settings | mass density [kg/m3] | speed of sound [m/s] | viscosity [mPa·s]
293.15 K, m1 = 0.04944 | 1004.66 | 1489.8 | 1.026
293.15 K, m1 = 0.06711 | 1006.89 | 1492 | 1.034
293.15 K, m1 = 0.07912 | 1008.4 | 1493.5 | 1.039
293.15 K, m1 = 0.0927 | 1010.06 | 1495.1 | 1.044
293.15 K, m1 = 0.1021 | 1011.22 | 1496.2 | 1.049
298.15 K, m1 = 0.04944 | 1003.45 | 1503.2 | 0.914
298.15 K, m1 = 0.06711 | 1005.68 | 1505.2 | 0.921
298.15 K, m1 = 0.07912 | 1007.18 | 1506.6 | 0.926
298.15 K, m1 = 0.0927 | 1008.82 | 1508 | 0.931
298.15 K, m1 = 0.1021 | 1009.97 | 1509 | 0.935
303.15 K, m1 = 0.04944 | 1002.01 | 1515.4 | 0.821
303.15 K, m1 = 0.06711 | 1004.22 | 1517.1 | 0.828
303.15 K, m1 = 0.07912 | 1005.71 | 1518.5 | 0.833
303.15 K, m1 = 0.0927 | 1007.35 | 1519.8 | 0.839
303.15 K, m1 = 0.1021 | 1008.49 | 1520.7 | 0.842
308.15 K, m1 = 0.04944 | 1000.35 | 1524.7 | 0.744
308.15 K, m1 = 0.06711 | 1002.54 | 1526.3 | 0.751
308.15 K, m1 = 0.07912 | 1004.03 | 1527.3 | 0.756
308.15 K, m1 = 0.0927 | 1005.67 | 1528.9 | 0.762
308.15 K, m1 = 0.1021 | 1006.8 | 1529.5 | 0.765
313.15 K, m1 = 0.04944 | 998.497 | 1534.1 | 0.677
313.15 K, m1 = 0.06711 | 1000.68 | 1535.5 | 0.683
313.15 K, m1 = 0.07912 | 1002.15 | 1536.5 | 0.688
313.15 K, m1 = 0.0927 | 1003.79 | 1537.8 | 0.692
313.15 K, m1 = 0.1021 | 1004.91 | 1538.5 | 0.696

— the NIST ThermoML archive (doi:10.1021/acs.jced.8b00349)
